Drawing on US9545105B2, “1-(heterocyclic carbonyl) piperidines” (BAYER INTELLECTUAL PROPERTY GMBH, priority 2010, dated 2017), this text covers Efficacy and logP for 5 molecules.

The test system of one data set is Alternaria solani. As to the kind of experiment: In vivo preventive test on Alternaria solani (tomato). The conditions noted are these: 500 ppm of active ingredient, evaluated 7 days after inoculation. Summed up:
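Young tomato plants were sprayed preventively with compound in DMF/alkylarylpolyglycolether diluted in water, then inoculated one day later with A. solani spores. Incubation was 1 day at about 22 °C and 100% RH, then about 20 °C and 96% RH. Efficacy was scored 7 days after inoculation (0% = untreated control, 100% = no disease).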

The next data set deals with Venturia inaequalis. Briefly: In vivo preventive test on Venturia inaequalis (apple scab). Particulars: 100 ppm of active ingredient, evaluated 10 days after inoculation. The procedure:
Solvent: 24.5 parts by weight of acetone • 24.5 parts by weight of N,N-dimethylacetamide Emulsifier: 1 part by weight of alkylaryl polyglycol ether To produce a suitable preparation of active compound, 1 part by weight of active compound is mixed with the stated amounts of solvent and emulsifier, and the concentrate is diluted with water to the desired concentration. To test for preventive activity, young plants are sprayed with the preparation of active compound at the stated rate of application. After the spray coating has dried on, the plants are inoculated with an aqueous conidia suspension of the causal agent of apple scab (Venturia inaequalis) and then remain for 1 day in an incubation cabinet at approximately 20° C. and a relative atmospheric humidity of 100%. The plants are then placed in a greenhouse at approximately 21° C. and a relative atmospheric humidity of approximately 90%. The test is evaluated 10 days after the inoculation. 0% means an efficacy which corresponds to that of the untreated control, while an efficacy of 100% means that no disease is observed.

The next data set deals with Septoria tritici. As to the kind of experiment: In vivo preventive test on Septoria tritici (wheat). The conditions noted are these: 500 ppm of active ingredient, evaluated 21 days after inoculation. The procedure: (§1) Solvent: 49 parts by weight of N,N-dimethylacetamide Emulsifier: 1 part by weight of alkylaryl polyglycol ether To produce a suitable preparation of active compound, 1 part by weight of active compound or active compound combination is mixed with the stated amounts of solvent and emulsifier, and the concentrate is diluted with water to the desired concentration. To test for preventive activity, young plants are sprayed with the preparation of active compound or active compound combination at the stated rate of application. After the spray coating has been dried, the plants are sprayed with a spore suspension of Septoria tritici. The plants remain for 48 hours in an incubation cabinet at approximately 20° C. and a relative atmospheric humidity of approximately 100% and afterwards for 60 hours at approximately 15° C. in a translucent incubation cabinet at a relative atmospheric humidity of approximately 100%. The plants are placed in the greenhouse at a temperature of approximately 15° C. and a relative atmospheric humidity of approximately 80%. The test is evaluated 21 days after the inoculation. 0% means an efficacy which corresponds to that of the untreated control, while an efficacy of 100% means that no disease is observed.

In data set [1] the test system is Fusarium nivale (var. majus). Briefly: In vivo preventive test on Fusarium nivale (wheat). Particulars: 500 ppm of active ingredient, evaluated 5 days after inoculation. The procedure:
Solvent: 49 parts by weight of N,N-dimethylacetamide Emulsifier: 1 part by weight of alkylaryl polyglycol ether To produce a suitable preparation of active compound, 1 part by weight of active compound or active compound combination is mixed with the stated amounts of solvent and emulsifier, and the concentrate is diluted with water to the desired concentration. To test for preventive activity, young plants are sprayed with the preparation of active compound or active compound combination at the stated rate of application. After the spray coating has been dried, the plants are slightly injured by using a sandblast and afterwards they are sprayed with a conidia suspension of Fusarium nivale (var. majus). The plants are placed in the greenhouse under a translucent incubation cabinet at a temperature of approximately 10° C. and a relative atmospheric humidity of approximately 100%. The test is evaluated 5 days after the inoculation. 0% means an efficacy which corresponds to that of the untreated control, while an efficacy of 100% means that no disease is observed.

Another data set concerns Leptosphaeria nodorum. Briefly: In vivo preventive test on Leptosphaeria nodorum (wheat). Particulars: 500 ppm of active ingredient, evaluated 8 days after inoculation. How it is done: as §1, with “Leptosphaeria nodorum.” for “Septoria tritici.”, “approximately” for “approximately 100% and afterwards for 60 hours at approximately 15° C. in a translucent incubation cabinet at a relative atmospheric humidity of approximately”, “22°” for “15°”, “8” for “21”

Data set [2] can be described thus: log P by HPLC on reversed-phase column (C 18), EEC Directive 79/831 Annex V.A8. The conditions noted are these: HPLC on reversed-phase column (C 18); 40° C.; 0.1% aqueous formic acid and acetonitrile; linear gradient 10% to 90% acetonitrile. It counts as physicochemical. Summed up: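 Calibration relied on straight-chain alkan-2-ones with 3 to 16 carbon atoms and known log P, with sample values read by linear interpolation of retention time between two adjacent standards. Separation at 40° C used 0.1% aqueous formic acid with acetonitrile rising linearly from 10% to 90%. UV spectra from 200 nm to 400 nm at chromatographic peak maxima gave lambda-max.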

A further data set has as its system Puccinia triticina. As to the kind of experiment: In vivo preventive test on Puccinia triticina (wheat). Particulars: 500 ppm of active ingredient, evaluated 8 days after inoculation. How it is done: as §1, with “Puccinia triticina.” for “Septoria tritici.”, “approximately” for “approximately 100% and afterwards for 60 hours at approximately 15° C. in a translucent incubation cabinet at a relative atmospheric humidity of approximately”, “20°” for “15°”, “8” for “21”

On to `CCC(c1ccccc1)C1CCCCN1C(=O)c1c(C(F)F)nn(C)c1F` (centres unmarked) [Example 136], for which the Efficacy in the data set with Alternaria solani came to 100%; in the data set on Venturia inaequalis it was 100%; in the data set with Septoria tritici it was 100%; in data set [1], 86%; in the data set on Leptosphaeria nodorum, 100%. In data set [2], the logP came out at 3.59.
Consider `CCc1nn(C)c(F)c1C(=O)N1CCCCC1c1ccc(Cl)cc1` (centres unmarked) [Example 54], for which the Efficacy in the data set with Alternaria solani is reported as 95%; with Venturia inaequalis, 98%; in the data set on Septoria tritici, 100%; in data set [1] it was 71%; in the data set with Leptosphaeria nodorum, 100%; in the data set with Puccinia triticina, 100%. In data set [2], this molecule had a logP of 3.35.
In the case of `Cc1cc(C)cc(C2CCCCN2C(=O)c2c(C)nn(C)c2F)c1` (centres unmarked) [Example 10], the Efficacy was 90% in the data set with Alternaria solani; 100% in the data set on Venturia inaequalis; 70% in the data set with Septoria tritici; 88% in data set [1]; 71% in the data set on Leptosphaeria nodorum; 88% in the data set with Puccinia triticina. Besides, in data set [2], the lipophilicity (logP) is 3.23.
Regarding `CCc1nn(C)c(F)c1C(=O)N1CCCCC1c1cc(C)cc(C)c1` (centres unmarked) [Example 11], the Efficacy in the data set with Alternaria solani is 100%; in the data set with Venturia inaequalis, 100%; in the data set on Septoria tritici, 100%; in data set [1], 83%; in the data set with Puccinia triticina it was 100%. Further, the logP in data set [2] is on record as 3.62.
Consider `CCC(c1ccccc1)C1CCCCN1C(=S)c1c(C(F)F)nn(C)c1F` (centres unmarked) [Example 140], for which the Efficacy amounted to 100% in the data set on Alternaria solani; 100% in the data set on Venturia inaequalis; 100% in the data set on Septoria tritici; 71% in data set [1]; 93% in the data set on Leptosphaeria nodorum. The same molecule had a log partition coefficient (logP) in data set [2] of 4.39.
